{"source": "patent US11219221B2", "about": "(FarmHannong Co., Ltd., priority 2017, dated 2022)", "type_in_all_cases": "cell-based", "settings_in_all_cases": "LB agar, 37° C., light, 16 to 20 hours", "key": {"[1]": {"system": "CyPPO17 wild type (SEQ ID NO: 3) in PPO-deficient E. coli BT3(ΔPPO)", "experimental": "(§1) The mutated CyPPO gene obtained from the Example 2 was transformed to BT3 (ΔPPO) strain which is deficient of PPO activity and cultured in LB media with PPO-inhibiting herbicide, thereby examining whether growth of transformed BT3 was not inhibited.\n(§2) BT3 competent cells were transformed with the pET303-CyPPO16 and pET303-CyPPO17 plasmids and those with a mutation(s) constructed in Example 2 respectively, and were cultured in LB agar media containing carbenicillin (Gold Biotechnology, Co., Ltd.).\n(§3) Single colony of E. coli transformed with each CyPPO gene was cultured in 3 ml of LB broth containing carbenicillin overnight, and then was subcultured until absorbance (0D600) reached 0.5 to 1. Then, it was diluted with LB broth to OD600=0.5. Again, the diluted solution was serially diluted 4 times by a factor of one tenth.\n(§4) The LB agar media (LB 25 g/l, Bacto agar 15 g/l) containing carbenicillin (100 μg/ml) and 0 to 4,000 μM of various herbicides dissolved in DMSO was prepared. Next, 10 μl of each diluted solution was dropped on the plate and cultured at 37° C. under light (Tables 7 and 9, FIGS. 2 to 6, and 18 to 22) or dark (Tables 8 and 10, FIGS. 7 to 17, and 23 to 33) for 16 to 20 hours. Then, extent of tolerance was evaluated.\n(§5) The extent of herbicide tolerance of the mutated genes was evaluated by comparing that of mutated genes with that of wild type. The relative tolerance was represented with “+” as a factor of 10 times. Evaluation result was listed in Tables 7 to10 and FIGS. 2 to 33:\n(§6) In Tables 7 to 10, tolerance level was presented as of tolerance of wild type and of variants equivalent to that of wild type, and was done as ‘+’ per each 10 fold resistance until ‘+++++’ as maximal resistance. (Tolerance level was evaluated by relative growth level of variants to that of wild type in the media containing highest concentration of herbicide; ‘+’=1-9 fold higher tolerance, ‘++’=10-99 fold higher tolerance, ‘+++’=100-999 fold higher tolerance, ‘++++’=1,000-9,999 fold higher tolerance, ‘+++++’=more than 10,000 fold higher tolerance)"}, "[2]": {"system": "CyPPO16 wild type (SEQ ID NO: 1) in PPO-deficient E. coli BT3(ΔPPO)", "experimental": "as §1, §2, §3, §4, §5, §6"}, "[3]": {"system": "CyPPO16 (SEQ ID NO: 1) variant A162C in PPO-deficient E. coli BT3(ΔPPO)", "experimental": "as §1, §2, §3, §4\n(§7) The extent of herbicide tolerance of the mutated genes was evaluated by comparing that of mutated genes with that of wild type. The relative tolerance was represented with “+” as a factor of 10 times.\n(§8) In Tables 7 to 10, tolerance level was presented as of tolerance of wild type and of variants equivalent to that of wild type, and was done as ‘+’ per each 10 fold resistance until ‘+++++’ as maximal resistance."}, "[4]": {"system": "CyPPO16 (SEQ ID NO: 1) variant F360C in PPO-deficient E. coli BT3(ΔPPO)", "experimental": "as §1, §2, §3, §4, §7, §8"}, "[5]": {"system": "CyPPO17 (SEQ ID NO: 3) variant F359M in PPO-deficient E. coli BT3(ΔPPO)", "experimental": "as §1, §2, §3, §4, §7, §8"}, "[6]": {"system": "CyPPO16 (SEQ ID NO: 1) variant F360V in PPO-deficient E. coli BT3(ΔPPO)", "experimental": "as §1, §2, §3, §4, §7, §8"}, "[7]": {"system": "CyPPO17 (SEQ ID NO: 3) variant F359C in PPO-deficient E. coli BT3(ΔPPO)", "experimental": "as §1, §2, §3, §4, §7, §8"}, "[8]": {"system": "CyPPO16 (SEQ ID NO: 1) variant F360I in PPO-deficient E. coli BT3(ΔPPO)", "experimental": "as §1, §2, §3, §4, §7, §8"}, "[9]": {"system": "CyPPO16 (SEQ ID NO: 1) variant V305M in PPO-deficient E. coli BT3(ΔPPO)", "experimental": "as §1, §2, §3, §4, §7, §8"}, "[10]": {"system": "CyPPO17 (SEQ ID NO: 3) variant F359L in PPO-deficient E. coli BT3(ΔPPO)", "experimental": "as §1, §2, §3, §4, §7, §8"}, "[11]": {"system": "CyPPO17 (SEQ ID NO: 3) variant F359I in PPO-deficient E. coli BT3(ΔPPO)", "experimental": "as §1, §2, §3, §4, §7, §8"}, "[12]": {"system": "CyPPO17 (SEQ ID NO: 3) variant A166L in PPO-deficient E. coli BT3(ΔPPO)", "experimental": "as §1, §2, §3, §4, §7, §8"}, "[13]": {"system": "CyPPO16 (SEQ ID NO: 1) variant A162L in PPO-deficient E. coli BT3(ΔPPO)", "experimental": "as §1, §2, §3, §4, §7, §8"}, "[14]": {"system": "CyPPO16 (SEQ ID NO: 1) variant F360L in PPO-deficient E. coli BT3(ΔPPO)", "experimental": "as §1, §2, §3, §4, §7, §8"}, "[15]": {"system": "CyPPO16 (SEQ ID NO: 1) variant F360M in PPO-deficient E. coli BT3(ΔPPO)", "experimental": "as §1, §2, §3, §4, §7, §8"}}, "data": [{"smiles": "C#CCN(C)c1c(C#N)cnn1-c1nn2c(c1Cl)CCCC2", "note": "[pyraclonil]", "values": [{"measurement": "Herbicide tolerance (relative to wild type)", "setting": "[1]", "value": "−"}, {"measurement": "Herbicide tolerance (relative to wild type)", "setting": "[2]", "value": "−"}, {"measurement": "Herbicide tolerance (relative to wild type)", "setting": "[3]", "value": "++ (10-99 fold higher tolerance)"}, {"measurement": "Herbicide tolerance (relative to wild type)", "setting": "[4]", "value": "++ (10-99 fold higher tolerance)"}, {"measurement": "Herbicide tolerance (relative to wild type)", "setting": "[5]", "value": "+ (1-9 fold higher tolerance)"}, {"measurement": "Herbicide tolerance (relative to wild type)", "setting": "[6]", "value": "+ (1-9 fold higher tolerance)"}, {"measurement": "Herbicide tolerance (relative to wild type)", "setting": "[7]", "value": "+ (1-9 fold higher tolerance)"}, {"measurement": "Herbicide tolerance (relative to wild type)", "setting": "[8]", "value": "+ (1-9 fold higher tolerance)"}, {"measurement": "Herbicide tolerance (relative to wild type)", "setting": "[9]", "value": "+ (1-9 fold higher tolerance)"}, {"measurement": "Herbicide tolerance (relative to wild type)", "setting": "[10]", "value": "+ (1-9 fold higher tolerance)"}, {"measurement": "Herbicide tolerance (relative to wild type)", "setting": "[11]", "value": "+ (1-9 fold higher tolerance)"}, {"measurement": "Herbicide tolerance (relative to wild type)", "setting": "[12]", "value": "+ (1-9 fold higher tolerance)"}, {"measurement": "Herbicide tolerance (relative to wild type)", "setting": "[13]", "value": "++ (10-99 fold higher tolerance)"}, {"measurement": "Herbicide tolerance (relative to wild type)", "setting": "[14]", "value": "+ (1-9 fold higher tolerance)"}, {"measurement": "Herbicide tolerance (relative to wild type)", "setting": "[15]", "value": "+ (1-9 fold higher tolerance)"}]}]}
